The text below walks through data of PMC4139061, “Structural basis of nucleoside and nucleoside drug selectivity by concentrative nucleoside transporters” (eLife, 2014).

Structures are written as SMILES. Values joined by “and” are separate entries in the source; they are usually repeats but may differ in a detail not shown here. Identical values can stand only once. A value given as a limit tells only on which side of the number the result lay.

Experiment [1] addresses T1, vcCNT (Vibrio cholerae, UniProt Q9KPL5). Nature of the experiment: biochemical. The format is binding. As to the method: The fluorescence anisotropy after each addition was measured. Each titration was performed at least three times. The data for the three titrations were simultaneously fit to a one-site competitive binding model based off of Wang's method ([Wang, 1995]) using nonlinear least-squares analysis in GraphPad Prism to obtain a dissociation constant and standard error.

The next experiment relates to hCNTs. The settings on record: cited from earlier work.
A further experiment addresses T2, hCNT1 (Homo sapiens, UniProt O00337).
T2 sequence (O00337 1-649): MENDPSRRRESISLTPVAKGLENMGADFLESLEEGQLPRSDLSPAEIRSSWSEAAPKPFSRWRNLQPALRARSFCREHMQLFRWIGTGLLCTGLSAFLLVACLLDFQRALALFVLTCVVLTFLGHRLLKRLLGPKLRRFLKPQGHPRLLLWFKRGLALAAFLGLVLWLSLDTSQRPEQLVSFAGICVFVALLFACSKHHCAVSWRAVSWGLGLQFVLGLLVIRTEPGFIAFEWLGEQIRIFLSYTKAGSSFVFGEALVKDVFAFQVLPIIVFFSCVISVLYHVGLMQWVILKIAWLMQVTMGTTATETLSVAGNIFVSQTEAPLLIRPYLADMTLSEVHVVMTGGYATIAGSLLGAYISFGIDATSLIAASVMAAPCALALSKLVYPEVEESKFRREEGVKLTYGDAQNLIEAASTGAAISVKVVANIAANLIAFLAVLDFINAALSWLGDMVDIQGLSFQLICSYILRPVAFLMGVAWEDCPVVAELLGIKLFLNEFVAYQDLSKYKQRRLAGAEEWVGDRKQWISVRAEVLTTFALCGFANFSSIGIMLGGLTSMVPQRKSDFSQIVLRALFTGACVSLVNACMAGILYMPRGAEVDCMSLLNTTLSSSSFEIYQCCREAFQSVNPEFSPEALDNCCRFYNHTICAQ
Description: two-electrode voltage-clamp of Na+ currents / total charge in Xenopus oocytes expressing hCNT1. The format is cell-based. The settings on record: 200 μM nucleoside; hCNT1-expressing Xenopus oocytes; mean of Exp. 1-11. An excerpt: (§1) To detect nucleoside transport by hCNTs, we turned to two-electrode voltage-clamp electrophysiological recording. Because hCNTs are Na^+-nucleoside symporters, one can measure the current generated by the Na^+ transport that is coupled with nucleoside transport. We injected Xenopus oocytes with mRNA coding for each of the hCNTs and measured inward Na^+ currents elicited by the addition of different nucleosides to the extracellular side.
(§2) The genes coding for the three hCNTs and vcCNT were cloned into a pGEM-HE vector. Plasmids were linearized using either SphI or NheI, and mRNA was transcribed using the mMESSAGE mMACHINE T7 Transcription Kit (Ambion, Grand Island, NY). Defolliculated Xenopus laevis oocytes were purchased from Ecocyte Bioscience (Austin, TX). Individual oocytes were injected with 40 ng of mRNA using a 10-μl microdispenser (Drummond Scientific, Broomall, PA) fitted with a tapered glass pipette tip and incubated at 17 °C for 4–5 days in ND96 buffer (96 mM NaCl, 2 mM KCl, 1 mM MgCl2, 1.8 mM CaCl2, and 5 mM HEPES pH 7.5) with 0.1% penicillin and streptomycin before recording.
(§3) The oocyte-recording chamber was gravity-perfused with ND96 buffer at a rate of 2 ml/min. Membrane currents were measured using an Oocyte Clamp (OC-725C; Warner Instruments, Hamden, CT). Individual oocytes were penetrated with two microelectrodes filled with 3 M KCl (0.5–1.0 MΩ). All electrophysiological experiments were conducted at room temperature. The OC-725C Oocyte Clamp was computer-interfaced via an Axon Digidata 1550 and controlled by Axoscope software (Molecular Devices, Sunnyvale, CA). The current signals were filtered at 20 Hz and sampled at intervals of 20 ms. The signals were filtered at 0.5 Hz by use of pCLAMP 10.4 software for data presentation. […] Cells were discarded if resting membrane potentials were unstable or more positive than −30 mV. Oocyte membrane potentials were clamped at −90 mV for holding potentials to measure transporter-generated currents. All data are shown as means ± SEM.
In general terms: Two-electrode voltage clamp is typically applied to oocytes expressing channels or transporters.

The target of a further experiment is hCNT2 (Homo sapiens, UniProt O43868). Description: two-electrode voltage-clamp of Na+ currents in Xenopus oocytes expressing hCNT2. The format is cell-based. The settings on record: data not shown.
From the text: as §1, §2
The oocyte-recording chamber was gravity-perfused with ND96 buffer at a rate of 2 ml/min. Membrane currents were measured using an Oocyte Clamp (OC-725C; Warner Instruments, Hamden, CT). Individual oocytes were penetrated with two microelectrodes filled with 3 M KCl (0.5–1.0 MΩ). […]

In the next experiment the target is hCNT1 (353V/424L) (Homo sapiens, UniProt O00337, L353V/V424L). Description: two-electrode voltage-clamp total charge in Xenopus oocytes expressing hCNT1 (353V/424L). The format is cell-based. The settings on record: 400 μM nucleoside, hCNT1 (353V/424L)-expressing Xenopus oocytes.
From the text: (§4) Figure 6. […] (A) Model of hCNT3 nucleo-pocket. […] (B) Model of hCNT1 nucleo-pocket. […] (C) Hypothetical alternating-access mechanism of vcCNT. A cartoon representation of the different conformational states along the transport cycle is depicted. The transport domain (including HP1, HP2, TM4b, and TM7b) and TM6 are shown as cylinders. […] The nucleo-pocket in the inward-occluded conformation (bottom right) is located between TM6 and TM4 and is marked with a green star. The inward-occluded conformation is derived from the crystal structures of vcCNT. All other conformations are purely hypothetical. The transition between inward- and outward-facing conformations has been proposed to be achieved by a rigid-body movement of the transport domain across TM6 ([Johnson et al., 2012]). Extracellular and intracellular gating likely involves slight rearrangements of HP2/TM4b and HP1/TM7b, respectively. […] See Figure 6—source data 1 for total charge source data. DOI: http://dx.doi.org/10.7554/eLife.03604.024 Figure 6—source data 1. Total charge data. Total charge transported (μC) was calculated as the area under the curve of the current trace after application of the indicated nucleoside to hCNT-expressing Xenopus oocytes. Each row represents a separate experiment done using a different oocyte. The ratios of the total charge transported for the nucleosides are shown in the last columns.
as §2
The oocyte-recording chamber was gravity-perfused with ND96 buffer at a rate of 2 ml/min. Membrane currents were measured using an Oocyte Clamp (OC-725C; Warner Instruments, Hamden, CT). Individual oocytes were penetrated with two microelectrodes filled with 3 M KCl (0.5–1.0 MΩ). All electrophysiological experiments were conducted at room temperature. The OC-725C Oocyte Clamp was computer-interfaced via an Axon Digidata 1550 and controlled by Axoscope software (Molecular Devices, Sunnyvale, CA). The current signals were filtered at 20 Hz and sampled at intervals of 20 ms.

The target in a further experiment is hCNT3 (375L/446V) (Homo sapiens, UniProt Q9HAS3, L446V/V375L). Description: two-electrode voltage-clamp total charge in Xenopus oocytes expressing hCNT3 (375L/446V). It counts as cell-based. The settings on record: 400 μM nucleoside; hCNT3 (375L/446V)-expressing Xenopus oocytes; mean of Exp. 1-11.
From the text: In the paradigm of the alternating-access mechanism of sodium-coupled symporters ([Krishnamurthy et al., 2009]), substrate release is achieved by the transition from the inward-facing occluded to the inward-facing open state (Figure 6C).
as §4
The genes coding for the three hCNTs and vcCNT were cloned into a pGEM-HE vector. Plasmids were linearized using either SphI or NheI, and mRNA was transcribed using the mMESSAGE mMACHINE T7 Transcription Kit (Ambion, Grand Island, NY). […]
The oocyte-recording chamber was gravity-perfused with ND96 buffer at a rate of 2 ml/min. Membrane currents were measured using an Oocyte Clamp (OC-725C; Warner Instruments, Hamden, CT). […]

The target in another experiment is T3, hCNT3 (Homo sapiens, UniProt Q9HAS3).
T3 sequence (Q9HAS3 1-691): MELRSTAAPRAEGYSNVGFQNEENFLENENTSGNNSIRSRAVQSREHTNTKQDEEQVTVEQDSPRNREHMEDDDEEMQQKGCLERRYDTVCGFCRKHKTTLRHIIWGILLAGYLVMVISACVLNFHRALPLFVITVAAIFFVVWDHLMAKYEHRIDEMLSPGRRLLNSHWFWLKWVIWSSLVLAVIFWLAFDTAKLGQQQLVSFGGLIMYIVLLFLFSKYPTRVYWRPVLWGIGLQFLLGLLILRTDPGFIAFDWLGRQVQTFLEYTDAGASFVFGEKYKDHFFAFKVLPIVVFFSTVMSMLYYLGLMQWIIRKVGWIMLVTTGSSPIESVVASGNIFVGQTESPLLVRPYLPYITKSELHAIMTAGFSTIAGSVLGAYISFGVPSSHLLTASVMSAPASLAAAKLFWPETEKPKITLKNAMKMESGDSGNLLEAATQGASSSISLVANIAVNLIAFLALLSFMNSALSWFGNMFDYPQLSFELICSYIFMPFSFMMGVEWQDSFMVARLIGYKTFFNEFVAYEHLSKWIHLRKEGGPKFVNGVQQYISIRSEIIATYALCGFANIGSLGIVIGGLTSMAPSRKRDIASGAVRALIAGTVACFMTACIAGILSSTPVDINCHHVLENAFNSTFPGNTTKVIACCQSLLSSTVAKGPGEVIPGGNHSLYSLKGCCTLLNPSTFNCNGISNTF
Description: two-electrode voltage-clamp of Na+ currents / total charge in Xenopus oocytes expressing hCNT3. The format is cell-based.
From the text: as §1, §2, §3

Experiment [2] concerns the target T1, vcCNT. Nature of the experiment: biochemical. The format is binding. As to conditions: KD.

hCNT1 (353V/424L), sequence (O00337 whole entry L353V/V424L, the tested form may be a part): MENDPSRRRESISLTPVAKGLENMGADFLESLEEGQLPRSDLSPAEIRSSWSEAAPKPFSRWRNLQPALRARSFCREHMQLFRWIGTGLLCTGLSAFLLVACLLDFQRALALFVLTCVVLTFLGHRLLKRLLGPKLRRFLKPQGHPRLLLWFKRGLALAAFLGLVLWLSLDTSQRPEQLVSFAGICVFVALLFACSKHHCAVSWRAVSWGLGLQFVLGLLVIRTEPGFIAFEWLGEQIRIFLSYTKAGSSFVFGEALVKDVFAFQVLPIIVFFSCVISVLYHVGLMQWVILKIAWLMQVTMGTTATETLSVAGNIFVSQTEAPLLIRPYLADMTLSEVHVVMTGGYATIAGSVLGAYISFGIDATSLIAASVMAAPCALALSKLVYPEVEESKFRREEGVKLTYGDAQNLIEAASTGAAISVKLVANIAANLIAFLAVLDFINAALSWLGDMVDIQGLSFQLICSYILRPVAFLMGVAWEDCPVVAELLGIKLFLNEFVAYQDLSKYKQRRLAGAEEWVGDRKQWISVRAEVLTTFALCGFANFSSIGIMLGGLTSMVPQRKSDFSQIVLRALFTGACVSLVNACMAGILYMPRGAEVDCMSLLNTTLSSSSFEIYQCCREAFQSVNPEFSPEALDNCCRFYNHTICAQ
T1 sequence (Q9KPL5 entry or part of it): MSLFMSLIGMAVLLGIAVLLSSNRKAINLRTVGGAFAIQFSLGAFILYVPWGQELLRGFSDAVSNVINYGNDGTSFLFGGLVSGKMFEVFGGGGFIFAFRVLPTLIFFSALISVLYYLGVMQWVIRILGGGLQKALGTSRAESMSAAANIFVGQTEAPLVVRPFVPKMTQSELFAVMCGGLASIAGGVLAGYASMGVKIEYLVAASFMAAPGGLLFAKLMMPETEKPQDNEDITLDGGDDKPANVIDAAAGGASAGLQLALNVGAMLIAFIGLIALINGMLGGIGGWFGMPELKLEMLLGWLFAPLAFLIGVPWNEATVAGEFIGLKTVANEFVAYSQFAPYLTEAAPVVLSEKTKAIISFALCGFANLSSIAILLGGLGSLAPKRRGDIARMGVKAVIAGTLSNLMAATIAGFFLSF
hCNT2, sequence (O43868 whole entry): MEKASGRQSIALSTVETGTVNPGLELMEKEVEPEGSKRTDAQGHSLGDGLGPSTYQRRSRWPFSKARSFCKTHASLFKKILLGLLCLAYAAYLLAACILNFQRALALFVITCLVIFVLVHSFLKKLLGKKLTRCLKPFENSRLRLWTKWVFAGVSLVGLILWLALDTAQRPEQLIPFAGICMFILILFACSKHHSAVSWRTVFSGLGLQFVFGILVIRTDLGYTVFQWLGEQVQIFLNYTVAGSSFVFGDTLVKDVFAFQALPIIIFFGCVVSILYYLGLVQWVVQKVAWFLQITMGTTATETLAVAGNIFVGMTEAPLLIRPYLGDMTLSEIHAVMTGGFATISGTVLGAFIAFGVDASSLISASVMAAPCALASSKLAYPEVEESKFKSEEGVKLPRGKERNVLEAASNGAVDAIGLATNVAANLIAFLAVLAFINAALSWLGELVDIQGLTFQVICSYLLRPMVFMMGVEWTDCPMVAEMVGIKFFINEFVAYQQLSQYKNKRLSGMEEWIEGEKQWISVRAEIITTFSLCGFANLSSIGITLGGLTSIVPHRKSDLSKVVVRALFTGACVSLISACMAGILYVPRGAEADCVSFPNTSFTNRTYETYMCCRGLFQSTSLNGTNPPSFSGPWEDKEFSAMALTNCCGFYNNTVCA
hCNT3 (375L/446V), sequence (Q9HAS3 whole entry V375L/L446V): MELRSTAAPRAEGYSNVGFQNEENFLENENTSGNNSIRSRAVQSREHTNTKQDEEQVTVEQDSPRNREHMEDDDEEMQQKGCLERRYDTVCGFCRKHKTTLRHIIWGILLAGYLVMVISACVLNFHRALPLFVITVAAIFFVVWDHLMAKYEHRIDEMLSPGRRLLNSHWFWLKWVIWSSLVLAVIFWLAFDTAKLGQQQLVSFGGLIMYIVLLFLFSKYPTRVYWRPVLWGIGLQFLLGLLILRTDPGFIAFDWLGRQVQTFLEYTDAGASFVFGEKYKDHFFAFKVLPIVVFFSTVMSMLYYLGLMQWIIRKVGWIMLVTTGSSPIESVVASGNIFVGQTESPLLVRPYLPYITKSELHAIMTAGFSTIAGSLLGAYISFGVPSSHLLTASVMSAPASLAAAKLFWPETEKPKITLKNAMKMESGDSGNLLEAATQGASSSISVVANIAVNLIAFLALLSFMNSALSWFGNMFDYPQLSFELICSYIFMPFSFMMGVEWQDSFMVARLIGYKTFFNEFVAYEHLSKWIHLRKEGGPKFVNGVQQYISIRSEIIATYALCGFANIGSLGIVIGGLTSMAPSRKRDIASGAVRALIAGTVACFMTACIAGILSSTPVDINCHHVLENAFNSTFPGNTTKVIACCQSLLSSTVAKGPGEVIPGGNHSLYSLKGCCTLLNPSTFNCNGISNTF

As to `O=c1ccn([C@H]2C[C@H](O)[C@@H](CO)O2)c(=O)[nH]1` [2′-deoxyuridine], the dissociation constant Kd (as a rule, a measure of binding affinity in units of concentration) on vcCNT [1] stood at 170 ± 10 µM. For `Cn1c(=O)ccn([C@@H]2O[C@H](CO)[C@@H](O)[C@H]2O)c1=O` [3-methyluridine], binding at vcCNT [1] was put at a Kd of 520 ± 80 µM.

For `O=c1ccn([C@@H]2O[C@H](CO)C[C@H]2O)c(=O)[nH]1` [3′-deoxyuridine], on vcCNT [1], the Kd was more than 2800 µM. Compound `C[C@H]1O[C@@H](n2ccc(=O)[nH]c2=O)[C@H](O)[C@@H]1O` [5'-deoxyuridine] displayed a Kd at vcCNT [1] of more than 2800 µM.

`O=c1[nH]c(=O)n([C@@H]2O[C@H](CO)[C@@H](O)[C@H]2O)cc1Cl` [5-chlorouridine] displayed a Kd at vcCNT [1] of 14 ± 1 µM. As for `O=c1[nH]c(=O)n([C@@H]2O[C@H](CO)[C@@H](O)[C@H]2O)cc1F` [5-fluorouridine], binding at vcCNT [1] was put at a Kd of 16 ± 1 µM. Also, at vcCNT [1] (fold, vcCNT), the “KD lower than the KD for uridine” value is “twofold”.

In the case of `O=c1[nH]c(=O)n([C@@H]2O[C@H](CO)[C@@H](O)[C@H]2O)cc1I` [5-iodouridine], the Kd on vcCNT [1] is 58 ± 5 µM. The same measure, in the same setting: the figure for `Cc1cn([C@@H]2O[C@H](CO)[C@@H](O)[C@H]2O)c(=O)[nH]c1=O` [5-methyluridine] is 61 ± 7 µM. The same measure, in the same setting: for `Nc1ncnc2c1ncn2[C@@H]1O[C@H](CO)[C@@H](O)[C@H]1O` [adenosine] the value was 470 ± 100 µM. `Nc1ccn([C@@H]2O[C@H](CO)[C@@H](O)[C@@H]2O)c(=O)n1` [cytarabine]: in the experiment on hCNTs (ref Clarke et al., 2006), the “binding and transport by hCNTs” value is “no significant binding and transport”. `Nc1ccn([C@@H]2O[C@H](CO)[C@@H](O)C2(F)F)c(=O)n1` [gemcitabine]: the “Total charge transported, Mean” value stood at 0.127 μC at hCNT1; 0.692 μC at hCNT1 (353V/424L) (mean of Exp. 1-8); 5.697 μC at hCNT3 (375L/446V); 7.084 μC on hCNT3 (200 μM nucleoside, hCNT3-expressing Xenopus oocytes, mean of Exp. 1-14). For the same compound, the “KD higher than that for cytidine” value on vcCNT [1] is reported as approximately 22 fold. Further, at hCNT2, the “transport by hCNT2” value was “transported neither compound”. Moreover, the Total charge transported on hCNT1 (353V/424L) (single oocyte, listed as Gem) is 0.743 μC and 0.542 μC and 0.572 μC and 0.858 μC and 0.563 μC and 0.586 μC and 0.813 μC. The “Na+ current on addition of nucleoside” value at hCNT3 (hCNT3-expressing oocytes, 200 μM) is listed as “induced Na^+ currents”. For the compound `Cc1cc2cn([C@@H]3O[C@H](CO)[C@@H](O)[C@H]3O)c(=O)nc2[nH]1` [pyrrolo-cytidine, reference compound], on vcCNT [2], the Kd is 0.9 µM and 0.94 µM. The compound `NC(=O)c1ncn([C@@H]2O[C@H](CO)[C@@H](O)[C@H]2O)n1` [ribavirin] registered an equilibrium dissociation constant (Kd) at vcCNT [1] of 1530 µM. Regarding `O=c1ccn([C@@H]2O[C@H](CO)[C@@H](O)[C@H]2O)c(=O)[nH]1` [uridine], the Km – broadly, the substrate concentration at which the rate is half of its maximum – with hCNTs (reported Km values, ref Molina-Arcas et al., 2009) is 22 to 80 µM. On to `O=c1ncccn1[C@@H]1O[C@H](CO)[C@@H](O)[C@H]1O` [zebularine], for which the Kd at vcCNT [1] turned out to be 120 ± 5 µM. The “loss of binding affinity relative to uridine” value at vcCNT [1] (fold, vcCNT) is “threefold”.
